Source: patent US7201896B1, “IL6RIL6 chimera for the treatment of neurodegenerative diseases” (Yeda Research and Development Company Ltd., priority 1999, dated 2007)

Key:
[1] = tested on: hippocampal organotypic slices; experiment: NMDA-induced cell death in hippocampal organotypic slices, propidium iodide; assay type: cell-based, rat; conditions: 0.1 ng/ml
Experimental: The cultures were prepared as previously described by Bahr et al. (Bahr 1995) with minor modifications. Hippocampi were dissected out from eight day old Wistar rats and 400 μm thick slices were laid down on a porous and transparent Millicell-CM membrane (Millipore) and cultured in 6 wells multiwell plates. Four slices were placed on each membrane. Culture medium consisted of 50% minimal essential medium (+25 mM HEPES, +4 mM NaHCO3+NaOH pH 7.2), 25% horse serum and 25% Hanks' solution, glucose (6.4 g/l), penicillin/streptomycin (10 ml/l), L-glutamine (2 mM). Cultures were kept in a 5% CO2 incubator set at a temperature of 37° C. for at least 3 weeks before being used. Medium was changed every week.
Hippocampal slices were exposed to IL6 or to the IL6 chimera at concentrations ranging […] for 15 min, thereafter NMDA 50 μM was added for additional 30 min. […] NMDA-induced cell death was evaluated either 1 or 3–7 days after the experimental injury by incubating cultures for 1 hour in fresh medium containing propidium iodide (PI 5 μl/ml). […] The emitted red fluorescence (marker of cell death) was examined using an inverted fluorescence microscope (Zeiss) associated with an intensified charged-coupled device camera. Quantification of total fluorescence was performed by an image analysis system (Image Pro Plus).

[2] = tested on: rat cerebellar granule cells; experiment: Glutamate-induced neurotoxicity in primary cerebellar granule cells; assay type: cell-based; conditions: 0.1 to 10 ng/ml; glutamate 50 μM
Experimental: Activation of glutamate ionotropic receptors represents the primary event in the neurotoxicity process triggered by excitatory amino acids. Primary cultures of new born rat cerebella neurons (which contain >97% neurons) were employed for studying the effects of the IL6 chimera on glutamate-induced neurotoxicity and compared to the effects of IL-6.
Primary cultures of cerebellar granule cells were prepared from 8 day-old Sprague-Dawley rat pups as previously described (Pizzi et al. 1993). Cells were plated onto poly-L-Lysine-coated dishes and cultured in basal Eagle's medium containing 10% heat-inactivated foetal bovine serum, glutamine (2 mM), gentamicin (50 μg/ml), and KCl (25 mM), at a density of 2.5×10^5 cells/cm^2. Cytosine Arabinoside (10 μM) was added to the cultures 18 h after seeding to prevent non neuronal cell proliferation. Experiments were carried out after culturing the neurons for 10 days.
Unless otherwise indicated, cultures were exposed for 15 min to 50 μM glutamate in a Mg^2+-free Locke's solution. IL6 or the IL6 chimera were added 5 min before glutamate treatment. Dishes were then returned to cultured conditioned medium at 37° C. in 95% air/5% CO2 and cell viability was measured 18–24 hours later.
Cell viability was evaluated 18 h later by intravital staining with fluorescein diaceate and propidium iodide mixture, as previously described (Pizzi et al. 1993). […]

[3] = tested on: dorsal root ganglia (DRG) explants, embryonic Schwann cells; experiment: Embryonic dorsal root ganglia (DRG) explant cultures: microscopy, scanning EM, anti-MBP staining; assay type: cell-based, mouse; conditions: IL6RIL6 3 μg/ml, NGF 40 ng/ml
Experimental: In the spinal cord, the dorsal root comprises essentially sensory neurons, which form synapses in the dorsal root ganglia (DRG). During mouse embryogenesis (at day e14–e15), DRGs are a convenient source of neurons and of embryonic Schwann cells which have not yet differentiated into myelinating SC. Procedures to obtain explants of DRGs for in vitro cultures are described by Li (1998). The cultures were performed on glass coverslips placed in the wells of Costar plates, in medium F12/DMEM (Gibco). The coverslips were coated either with collagen or with poly-D-lysine, with essentially similar results. Cultures were either done in medium without growth factor or cytokine additions or in medium supplemented with nerve growth factor (NGF, 40 ng/ml), or in medium supplemented with IL6RIL6 chimeric recombinant proteins (3 μg/ml). The cultures were examined daily by light microscopy with an Olympus inverted microscope linked to a video-camera imaging system (Leica LIDA system). Part of the coverslips were fixed in paraformaldehyde and MBP proteins were labeled with monoclonal primary antibodies to myelin basic proteins and fluorescein-conjugated secondary antibody. Neuronal cell bodies and axons were stained with antibodies to neurofilament protein. Some of the coverslips were examined by scanning electron microscopy (EM).

[4] = tested on: Rat sciatic nerve Schwann cell lines cells with murine DRG neurons; experiment: Co-culture of DRG neuronal cells with fluorogold-labeled Schwann cells; assay type: cell-based
Source text: By culturing murine DRG in the presence of DNA synthesis inhibitors arabinoseC (AraC) and fluorodeoxyuridine (FudR), neuronal cells can develop axons while glial cell proliferation is inhibited. These DRG cultures can be used as a source of neuronal cells with non-myelinated axons. Schwann cells are exogenously added to these cultures to study the interaction between neurons and Schwann cells.
Rat sciatic nerve Schwann cell lines cells were labeled with fluorogold, a label that penetrates the cell membrane lipid bi-layer and is maintained for an extensive period of time without affecting cell function. […] This system allows to study the various steps in the myelination process which are affected by the IL-6 chimera.

| Substance | neuronal cells protected from NMDA-induced cell death ([1]; after one day, NMDA 50 μM) | cells protected from NMDA-induced cell death ([1]; day 5) | protection from glutamate-induced neurotoxicity [2] | Staining with anti-MBP [3] | Schwann cells along axons in DRG explant cultures ([3]; after 2 to 5 days) | sheath formation around the axons ([4]; after a few days) | binding of the Schwann cells along the axons ([4]; within 5 hours) |
| --- | --- | --- | --- | --- | --- | --- | --- |
| IL-6: Interleukin-6, cytokine used as comparator | approximately 50% | 30% | no protective effect | – | – | – | – |
| NGF: nerve growth factor | – | – | – | little MBP-specific fluorescence | no Schwann cells were observed along the axons | do not form a sheath | bind much less |
